In experiment [1] the test system is HeLa. The experiment is described as follows: Cytotoxicity against human HeLa cells assessed as inhibition of cell proliferation by MTT assay. The class given is functional, cell-based.
For another experiment, the system named is NCI-H460. In words: Cytotoxicity against human NCI-H460 cells assessed as inhibition of cell proliferation by MTT assay. The class given is functional, cell-based. In general terms: Tetrazolium assays rely on reduction of a dye to a coloured formazan, in cell work by metabolically active cells.
For a further experiment, the system named is HepG2. The experiment is described as follows: Cytotoxicity against human HepG2 cells assessed as inhibition of cell proliferation by MTT assay. The class given is functional, cell-based.
The next experiment relates to MCF7. In words: Cytotoxicity against human MCF7 cells assessed as inhibition of cell proliferation by MTT assay. The class given is functional, cell-based.
Experiment [2] in a line: Induction of apoptotis in human HeLa cells assessed as necrotic cells at 10 uM measured after 24 hrs by FITC/propidium iodide staining based flow cytometry (reference value: 2.59 %). The class given is functional. (In general: A flow cytometer gives signals particle by particle.)
Experiment [3] addresses Serine/threonine-protein kinase AKT (Homo sapiens) (UniProt P31751+Q9Y243+P31749). The experiment is described as follows: […] of AKT signaling pathway in human HeLa cells assessed as reduction in phosphorylated AKT expression measured after 24 hrs by Western blot analysis. The class given is cell-based. As to conditions: dose 10-30 µM. Background: Immunoblotting shows a protein as a band on a membrane.

Experiment [4] in a line: Induction of apoptotis in human HeLa cells assessed as live cells at 10 uM measured after 24 hrs by FITC/propidium iodide staining based flow cytometry (reference value: 89.2 %). The class given is functional.
Experiment [5] is described as follows: Induction of apoptotis in human HeLa cells assessed as early apoptotic cells at 20 uM measured after 24 hrs by FITC/propidium iodide staining based flow cytometry (reference value: 5.46 %). The class given is functional.
A short description of experiment [6]: Induction of apoptotis in human HeLa cells assessed as late apoptotic cells at 30 uM measured after 24 hrs by FITC/propidium iodide staining based flow cytometry (reference value: 2.74 %). The class given is functional.
Experiment [7] concerns HeLa. The experiment is described as follows: Activation of MAPK signaling pathway in human HeLa cells assessed as increase in phosphorylated p38 protein level at 30 uM measured after 24 hrs by Western blot analysis. The class given is cell-based. As to conditions: filed as activator.
Experiment [8] has as its system HeLa. The experiment is described as follows: Induction of apoptosis in human HeLa cells assessed as increase in PARP cleavage measured after 24 hrs by Western blot analysis. The class given is functional, cell-based. Conditions: dose 10-30 µM.
Experiment [9] can be described thus: Induction of apoptotis in human HeLa cells assessed as necrotic cells at 30 uM measured after 24 hrs by FITC/propidium iodide staining based flow cytometry (reference value: 2.59 %). The class given is functional.
Experiment [10] is described as follows: Induction of apoptotis in human HeLa cells assessed as necrotic cells at 20 uM measured after 24 hrs by FITC/propidium iodide staining based flow cytometry (reference value: 2.59 %). The class given is functional.
Experiment [11] is described as follows: Induction of apoptotis in human HeLa cells assessed as necrotic cells at 40 uM measured after 24 hrs by FITC/propidium iodide staining based flow cytometry (reference value: 2.59 %). The class given is functional.
Experiment [12] can be described thus: Induction of apoptotis in human HeLa cells assessed as live cells at 30 uM measured after 24 hrs by FITC/propidium iodide staining based flow cytometry (reference value: 89.2 %). The class given is functional.
Experiment [13] can be described thus: Induction of apoptotis in human HeLa cells assessed as late apoptotic cells at 10 uM measured after 24 hrs by FITC/propidium iodide staining based flow cytometry (reference value: 2.74 %). The class given is functional.
Experiment [14] is described as follows: Induction of apoptotis in human HeLa cells assessed as live cells at 40 uM measured after 24 hrs by FITC/propidium iodide staining based flow cytometry (reference value: 89.2 %). The class given is functional.
A short description of experiment [15]: Induction of apoptotis in human HeLa cells assessed as live cells at 20 uM measured after 24 hrs by FITC/propidium iodide staining based flow cytometry (reference value: 89.2 %). The class given is functional.
The subject of experiment [16] is HeLa. The experiment is described as follows: Activation of MAPK signaling pathway in human HeLa cells assessed as increase in phosphorylated JNK protein level at 30 uM measured after 24 hrs by Western blot analysis. The class given is cell-based. As to conditions: filed as activator.
Experiment [17] can be described thus: Induction of apoptotis in human HeLa cells assessed as late apoptotic cells at 40 uM measured after 24 hrs by FITC/propidium iodide staining based flow cytometry (reference value: 2.74 %). The class given is functional.
Experiment [18] is described as follows: Induction of apoptotis in human HeLa cells assessed as early apoptotic cells at 40 uM measured after 24 hrs by FITC/propidium iodide staining based flow cytometry (reference value: 5.46 %). The class given is functional.
For experiment [19], the system named is HeLa. In words: Activation of MAPK signaling pathway in human HeLa cells assessed as reduction in phosphorylated ERK expression measured after 24 hrs by Western blot analysis. The class given is cell-based. Conditions: filed as activator, dose 10-30 µM.
Experiment [20] is described as follows: Induction of apoptotis in human HeLa cells assessed as early apoptotic cells at 30 uM measured after 24 hrs by FITC/propidium iodide staining based flow cytometry (reference value: 5.46 %). The class given is functional.
Experiment [21] in a line: Induction of apoptotis in human HeLa cells assessed as early apoptotic cells at 10 uM measured after 24 hrs by FITC/propidium iodide staining based flow cytometry (reference value: 5.46 %). The class given is functional.
Experiment [22] in a line: Induction of apoptotis in human HeLa cells assessed as late apoptotic cells at 20 uM measured after 24 hrs by FITC/propidium iodide staining based flow cytometry (reference value: 2.74 %). The class given is functional.

Calls of active or inactive are those of the source. No cut-off for these calls is given here.

Chain of Serine/threonine-protein kinase AKT (Homo sapiens) (P31749 whole entry, looked up): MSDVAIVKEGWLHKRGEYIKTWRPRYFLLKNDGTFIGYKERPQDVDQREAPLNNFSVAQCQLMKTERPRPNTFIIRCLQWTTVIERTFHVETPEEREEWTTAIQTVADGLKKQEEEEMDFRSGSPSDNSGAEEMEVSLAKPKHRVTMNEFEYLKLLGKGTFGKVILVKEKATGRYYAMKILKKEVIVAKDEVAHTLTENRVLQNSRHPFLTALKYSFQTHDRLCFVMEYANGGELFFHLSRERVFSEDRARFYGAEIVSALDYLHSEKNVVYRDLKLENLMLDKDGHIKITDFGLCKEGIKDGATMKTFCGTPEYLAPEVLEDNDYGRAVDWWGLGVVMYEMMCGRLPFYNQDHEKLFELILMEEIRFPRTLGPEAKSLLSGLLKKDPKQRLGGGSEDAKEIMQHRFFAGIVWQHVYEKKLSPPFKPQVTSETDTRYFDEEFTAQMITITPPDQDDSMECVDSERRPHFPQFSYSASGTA
Chain of Serine/threonine-protein kinase AKT (Homo sapiens) (P31751 whole entry, looked up): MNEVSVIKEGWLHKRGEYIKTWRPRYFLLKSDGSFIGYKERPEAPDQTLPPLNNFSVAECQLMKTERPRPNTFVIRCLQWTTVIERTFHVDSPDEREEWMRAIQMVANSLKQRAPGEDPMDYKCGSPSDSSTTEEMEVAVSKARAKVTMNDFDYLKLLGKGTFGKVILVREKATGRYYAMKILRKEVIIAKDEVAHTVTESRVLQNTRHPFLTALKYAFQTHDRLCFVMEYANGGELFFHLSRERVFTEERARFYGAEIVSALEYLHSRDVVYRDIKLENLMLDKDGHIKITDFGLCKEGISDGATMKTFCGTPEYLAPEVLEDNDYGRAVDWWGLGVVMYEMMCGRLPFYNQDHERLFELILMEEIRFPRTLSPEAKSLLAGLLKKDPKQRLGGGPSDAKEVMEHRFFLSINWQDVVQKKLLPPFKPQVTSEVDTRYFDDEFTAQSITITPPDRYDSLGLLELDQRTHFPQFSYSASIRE
Chain of Serine/threonine-protein kinase AKT (Homo sapiens) (Q9Y243 whole entry, looked up): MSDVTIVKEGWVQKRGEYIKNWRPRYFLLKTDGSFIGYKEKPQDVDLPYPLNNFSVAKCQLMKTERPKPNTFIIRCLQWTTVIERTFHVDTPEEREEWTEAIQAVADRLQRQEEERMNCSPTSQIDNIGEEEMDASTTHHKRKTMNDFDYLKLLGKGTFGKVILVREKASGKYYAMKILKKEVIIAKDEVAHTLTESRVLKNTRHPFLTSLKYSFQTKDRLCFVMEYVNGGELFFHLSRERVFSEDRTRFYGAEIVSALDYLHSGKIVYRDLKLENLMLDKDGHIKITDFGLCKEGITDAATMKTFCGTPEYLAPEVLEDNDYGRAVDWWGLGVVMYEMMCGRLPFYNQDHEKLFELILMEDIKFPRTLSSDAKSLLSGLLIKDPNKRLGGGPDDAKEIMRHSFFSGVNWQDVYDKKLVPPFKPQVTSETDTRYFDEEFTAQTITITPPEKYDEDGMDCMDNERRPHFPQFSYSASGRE

Take `CC(C)=CCc1c(O)cc2oc(-c3ccc(O)c(O)c3)cc(=O)c2c1O`: the IC50 with HeLa [1], in the experiment on NCI-H460, in the experiment on HepG2 and in the experiment on MCF7 was more than 40 µM each time.

In the case of `CC(C)=CCc1c(O)cc2oc(-c3ccc(O)cc3)cc(=O)c2c1O`, the Activity in experiment [2] was 0.75%; in [3], “Dose-dependent effect”; in [4] it was 88.2%; in [5], 8.25%; in experiment [6] it was 3.4%; with HeLa [8], “Dose-dependent effect”. The Activity in experiment [9] is 0.69%; in experiment [10], 0.88%; in experiment [11] it was 0.63%; in experiment [12], 86.5%; in [13], 4.11%; in [14], 82.6%. Besides, the Activity in [15] was 87.6%; in experiment [17] it was 4.28%; in [18], 12.5%; in the experiment with HeLa [19], “Dose-dependent effect”; in experiment [20], 9.41%; in experiment [21], 6.92%. Moreover, in [22], the Activity worked out at 3.23%. In addition, the IC50 (in general, the midpoint of a concentration-inhibition curve) was 28.9 µM with HeLa [1], 38.5 µM in the experiment on NCI-H460, more than 40 µM in the experiment with HepG2 and 32.4 µM in the experiment with MCF7. For the same compound, the outcome in the experiment with HeLa [7] and in the experiment on HeLa [16] was Active.

As to `CC(C)=CCc1cc(-c2cc(=O)c3c(O)cc(O)cc3o2)cc(O)c1O`, the IC50 in the experiment with HeLa [1], in the experiment with NCI-H460, with HepG2 and with MCF7 was more than 40 µM in each case.

For `CC(C)=CCc1c(O)cc(O)c2c(=O)cc(-c3ccc(O)cc3)oc12`, the IC50 in the experiment with HeLa [1], in the experiment on NCI-H460, with HepG2 and in the experiment on MCF7 was more than 40 µM in each case.

Take `CC(C)=CCc1cc(-c2cc(=O)c3c(O)cc(O)cc3o2)ccc1O`: the IC50 in the experiment with HeLa [1], in the experiment with NCI-H460, in the experiment on HepG2 and with MCF7 was more than 40 µM in each case.

For `COc1c(CC=C(C)C)cc(C2CC(=O)c3c(O)cc(O)cc3O2)c(CC=C(C)C)c1OC` (racemic), the 50% inhibitory concentration (IC50) in the experiment on HeLa [1], with NCI-H460, in the experiment on HepG2 and in the experiment with MCF7 was more than 40 µM in each case.

(Values after ChEMBL document CHEMBL4732223, “Prenylated flavonoids from Ficus hirta induces HeLa cells apoptosis via MAPK and AKT signaling pathways” (Bioorg Med Chem Lett, 2021).)
